Reference: patent US10301314B2, “Compounds and methods for the prevention and treatment of tumor metastasis and tumorigenesis” (The United States of America, as represented by the …, priority 2011, dated 2019)

Experiments:
[1] = system: PC3M cell line that stably expresses GFP-PTB to mark PNCs; assay: High content assay for PNC detection (reduction of PNC prevalence); assay type: cell-based, human; conditions: Table 4, PC3M GFP-PTB cells, 16 hrs incubation; for IC50: Homo sapiens, PC-3M
Excerpt: The quantitative output for this assay is the reduction of PNC prevalence. The PNC can be detected in living cells by the expression of a green fluorescent protein (GFP) tagged to the PNC localized protein, PTB. A PC3M cell line was used that stably expresses GFP-PTB to mark PNCs. This method eliminates the need for immunofluorescent staining.
The IN Cell Analyzer 1000 automated fluorescent imaging system (GE Healthcare, Piscataway, N.J.) was used for automated image acquisition. […] The instrument acquired images of each well in a 1536-well plate with a laser-based autofocus system. To score PNC prevalence in a high-content throughput, the Multi-Target Analysis (MTA) algorithm (GE Healthcare, Investigator v3.5) to identify individual cells and granules (PNCs) within these cells was used. The nucleus was segmented via a region growing method (50 μm^2 minimum area) with light shading and noise removal to allow “touching” nuclei to be separated. Granules in the nucleus (PNCs) were segmented using a multiscale top hat method, which measures granules of 1 to 2 μm in size and used a smart masking method to identify the boundaries of each segmented granule. The algorithm was optimized and validated using positive and negative controls (50 μM camptothecin and DMSO, respectively). In particular, the MTA algorithm allows for the identification of multiple subcellular compartments and organelles (or granules) within those compartments. In this instance, the algorithm's capability to identify objects within the same color channel that only differ in size or fluorescent intensity was utilized. Also, the algorithm allows for building complex hierarchical classification systems, using output measures within the algorithm to filter and define subpopulations. For this particular assay, PNC-positive cells were scored when 1 to 3 PNC granules were detected per nucleus. Cells that contained 0 granules were scored as PNC negative, and cells with >3 granules were assumed to be false positives (very few cells have more than 3 PNCs in one focus plane), and were also scored as PNC negative.

[2] = system: PC3M reporter cell line stably expressing the PTB-GFP; assay: ATP quantitation assay (ATPLite); assay type: cell-based, human; conditions: Homo sapiens, PC-3M, Table 4, PC3M cells, 24 hrs incubation
Protocol: This follow-up assay was conducted to measure the effect of compounds on cell health by measuring ATP levels (ATPLite™). ATPLite™ is an ATP monitoring system based on firefly (Photinus pyralis) luciferase. The level of ATP in a metabolically active cell is a general marker for its viability. ATP levels are often reduced during necrosis or apoptosis. In this assay, the luciferase enzyme catalyzes the conversion of the added substrate D-luciferin to oxyluciferin and light with ATP. Thus, the emitted light is proportional to the ATP concentration. For this assay, the highly metastatic PC3M reporter cell line stably expressing the PTB-GFP was provided by Professor Sui Huang of Northwestern University. The media and cell culture reagents were purchased from Invitrogen (Carlsbad, Calif.), ATPLite™ came from PerkinElmer.

In the case of `COC(Cn1cnc2c(c(-c3ccccc3)c(-c3ccccc3)n2Cc2ccccc2)c1=N)OC`, the IC50 [1] is reported as 5.9 µM and the IC50 [2] is reported as 38.3 µM.
For `N=c1c2c(-c3ccccc3)c(-c3ccccc3)n(CCc3ccccc3)c2ncn1[C@H]1CC[C@H](O)CC1` [Compound 3], the IC50 [1] was 0.047 µM and the IC50 [2] was 9.61 µM.
For `N=c1c2c(-c3ccccc3)c(-c3ccccc3)n(Cc3ccccc3)c2ncn1CCO` [Compound 4], the IC50 [1] was 0.118 µM and the IC50 [2] was 76.4 µM.
For `N=c1c2c(-c3ccccc3)c(-c3ccccc3)n(CCc3ccccc3)c2ncn1CCO` [Compound 5], the IC50 [1] was 0.187 µM and the IC50 [2] was 19.2 µM.
`COc1ccc(Cn2c(-c3ccccc3)c(-c3ccccc3)c3c(=N)n(CCO)cnc32)cc1` [Compound 6] gave an IC50 [1] of 1.48 µM and an IC50 [2] of 48.2 µM.
Work on `N=c1c2c(-c3ccccc3)c(-c3ccccc3)n(Cc3ccco3)c2ncn1CCO` [Compound 7] yielded an IC50 [1] of 0.628 µM and an IC50 [2] of 20.4 µM.
In the case of `N=c1c2c(-c3ccccc3)c(-c3ccccc3)n(CCc3ccccc3)c2ncn1CCCO` [Compound 9], the IC50 [1] is reported as 0.148 µM and the IC50 [2] is reported as 19.2 µM.
`N=c1c2c(-c3ccccc3)c(-c3ccccc3)n(Cc3ccco3)c2ncn1CCCO` [Compound 11] was tested, and the IC50 [1] was 3.97 µM and the IC50 [2] was 64.6 µM.
With `N=c1c2c(-c3ccccc3)c(-c3ccccc3)n(Cc3ccccc3)c2ncn1CCCCO` [Compound 12] the “PNC IC50(μM)” value [1] was “inactive” and the IC50 [2] was 24.1 µM.
`N=c1c2c(-c3ccccc3)c(-c3ccccc3)n(CCc3ccccc3)c2ncn1CCCCO` [Compound 13] was tested, and the IC50 [1] was 0.235 µM and the IC50 [2] was 15.2 µM.
With `COc1ccc(Cn2c(-c3ccccc3)c(-c3ccccc3)c3c(=N)n(CCCCCO)cnc32)cc1` [Compound 14] the IC50 [1] was 1.18 µM and the IC50 [2] was 24.1 µM.
For `N=c1c2c(-c3ccccc3)c(-c3ccccc3)n(Cc3ccccc3)c2ncn1CCCCCO` [Compound 15], the IC50 [1] was 0.372 µM and the IC50 [2] was 24.1 µM.
Work on `N=c1c2c(-c3ccccc3)c(-c3ccccc3)n(CCc3ccccc3)c2ncn1CCCCCO` [Compound 16] yielded an IC50 [1] of 0.59 µM and an IC50 [2] of 38.3 µM.
`COc1ccc(Cn2c(-c3ccccc3)c(-c3ccccc3)c3c(=N)n(CCCCO)cnc32)cc1` [Compound 17] showed an IC50 [1] of 1.18 µM and an IC50 [2] of 30.4 µM.
In the case of `N=c1c2c(-c3ccccc3)c(-c3ccccc3)n(Cc3ccccc3)c2ncn1CCN` [Compound 18], the “PNC IC50(μM)” value [1] is reported as “inactive” and the IC50 [2] is reported as 76.4 µM.
For `CN(C)CCn1cnc2c(c(-c3ccccc3)c(-c3ccccc3)n2Cc2ccccc2)c1=N` [Compound 19], the IC50 [1] was 0.935 µM and the IC50 [2] was 24.1 µM.
`CN(C)CCn1cnc2c(c(-c3ccccc3)c(-c3ccccc3)n2CCc2ccccc2)c1=N` [Compound 20] gave an IC50 [1] of 0.469 µM and an IC50 [2] of 96.1 µM.
In the case of `CN(C)CCCn1cnc2c(c(-c3ccccc3)c(-c3ccccc3)n2Cc2ccccc2)c1=N` [Compound 21], the IC50 [1] is reported as 7.43 µM and the IC50 [2] is reported as 24.1 µM.
In the case of `CN(C)CCCn1cnc2c(c(-c3ccccc3)c(-c3ccccc3)n2CCc2ccccc2)c1=N` [Compound 22], the IC50 [1] is reported as 7.43 µM and the IC50 [2] is reported as 24.1 µM.
In the case of `N=c1c2c(-c3ccccc3)c(-c3ccccc3)n(Cc3ccccc3)c2ncn1C1CCN(Cc2ccccc2)CC1` [Compound 23], the IC50 [1] is reported as 4.69 µM and the IC50 [2] is reported as 121 µM.
In the case of `N=c1c2c(-c3ccccc3)c(-c3ccccc3)n(CCc3ccccc3)c2ncn1C1CCN(Cc2ccccc2)CC1` [Compound 24], the IC50 [1] is reported as 1.87 µM and the IC50 [2] is reported as 24.1 µM.
`COCCn1cnc2c(c(-c3ccccc3)c(-c3ccccc3)n2Cc2ccccc2)c1=N` [Compound 25] was tested, and the IC50 [1] was 1.87 µM and the IC50 [2] was 60.7 µM.
`COCCn1cnc2c(c(-c3ccccc3)c(-c3ccccc3)n2CCc2ccccc2)c1=N` [Compound 26] gave an IC50 [1] of 3.72 µM and an IC50 [2] of 60.7 µM.
Work on `COCCn1cnc2c(c(-c3ccccc3)c(-c3ccccc3)n2Cc2ccc(OC)cc2)c1=N` [Compound 27] yielded an IC50 [1] of 1.18 µM and an IC50 [2] of 24.1 µM.
For `COC(Cn1cnc2c(c(-c3ccccc3)c(-c3ccccc3)n2CCc2ccccc2)c1=N)OC` [Compound 29], the IC50 [1] was 23.5 µM and the IC50 [2] was 27.1 µM.
`COc1ccc(Cn2c(-c3ccccc3)c(-c3ccccc3)c3c(=N)n(CC(OC)OC)cnc32)cc1` [Compound 30] was tested, and the IC50 [1] was 5.9 µM and the IC50 [2] was 24.1 µM.
Molecule `CCOC(CCCn1cnc2c(c(-c3ccccc3)c(-c3ccccc3)n2Cc2ccccc2)c1=N)OCC` [Compound 31] has an IC50 [1] of 2.96 µM and an IC50 [2] of 24.1 µM.
`CCOC(CCCn1cnc2c(c(-c3ccccc3)c(-c3ccccc3)n2CCc2ccccc2)c1=N)OCC` [Compound 32] gave an IC50 [1] of 18.7 µM and an IC50 [2] of 24.1 µM.
For `CCOC(CCCn1cnc2c(c(-c3ccccc3)c(-c3ccccc3)n2Cc2ccc(OC)cc2)c1=N)OCC` [Compound 33], the IC50 [1] was 2.96 µM and the IC50 [2] was 48.2 µM.
With `CCCCn1cnc2c(c(-c3ccccc3)c(-c3ccccc3)n2Cc2ccco2)c1=N` [Compound 34] the IC50 [1] was 1.25 µM and the IC50 [2] was 20.4 µM.
For `CC(C)CCn1cnc2c(c(-c3ccccc3)c(-c3ccccc3)n2Cc2ccco2)c1=N` [Compound 35], the “PNC IC50(μM)” value [1] was “Inactive” and the IC50 [2] was 19.9 µM.
`N=c1c2c(-c3ccccc3)c(-c3ccccc3)n(Cc3ccccc3)c2ncn1CCCn1ccnc1` [Compound 36] was tested, and the IC50 [1] was 1.99 µM and the IC50 [2] was 25.7 µM.
With `N=c1c2c(-c3ccccc3)c(-c3ccccc3)n(Cc3ccccc3)c2ncn1CC1CCCO1` (centres unmarked) [Compound 38] the IC50 [1] was 0.935 µM and the IC50 [2] was 96.1 µM.
In the case of `N=c1c2c(-c3ccccc3)c(-c3ccccc3)n(CCc3ccccc3)c2ncn1CC1CCCO1` (centres unmarked) [Compound 39], the IC50 [1] is reported as 4.69 µM and the IC50 [2] is reported as 48.2 µM.
`COc1ccc(Cn2c(-c3ccccc3)c(-c3ccccc3)c3c(=N)n(CC4CCCO4)cnc32)cc1` (centres unmarked) [Compound 40] was tested, and the IC50 [1] was 5.9 µM and the IC50 [2] was 38.3 µM.
`N=c1c2c(-c3ccccc3)c(-c3ccccc3)n(Cc3ccco3)c2ncn1Cc1ccco1` [Compound 43] gave an IC50 [1] of 9.96 µM and an IC50 [2] of 20.4 µM.
With `N=c1c2c(-c3ccccc3)c(-c3ccccc3)n(Cc3ccccc3)c2ncn1Cc1ccccc1` [Compound 44] the IC50 [1] was 15.8 µM and the IC50 [2] was 19.9 µM.
`N=c1c2c(-c3ccccc3)c(-c3ccccc3)n(Cc3ccccc3)c2ncn1Cc1ccc2c(c1)OCO2` [Compound 45] showed an IC50 [1] of 9.35 µM and an IC50 [2] of 24.1 µM.
For `COc1ccc(CCn2cnc3c(c(-c4ccccc4)c(-c4ccccc4)n3Cc3ccccc3)c2=N)cc1OC` [Compound 46], the IC50 [1] was 14.8 µM and the IC50 [2] was 24.1 µM.
`N=c1c2c(-c3ccccc3)c(-c3ccccc3)n(CCc3ccccc3)c2ncn1[C@H](CO)Cc1ccccc1` [Compound 48] showed an IC50 [1] of 4.69 µM and an IC50 [2] of 30.4 µM.
For `N=c1c2c(-c3ccccc3)c(-c3ccccc3)n(Cc3ccco3)c2ncn1CCN1CCOCC1` [Compound 50], the “PNC IC50(μM)” value [1] was “inactive” and the IC50 [2] was 32.4 µM.
`COC(=O)c1cccc(Cn2cnc3c(c(-c4ccccc4)c(-c4ccccc4)n3CCc3ccccc3)c2=N)c1` [Compound 53] was tested, and the IC50 [1] was 29.6 µM and the IC50 [2] was 24.1 µM.
In the case of `CO[C@H]1CC[C@H](n2cnc3c(c(-c4ccccc4)c(-c4ccccc4)n3Cc3ccccc3)c2=N)CC1` [Compound 56], the IC50 [1] is reported as 0.009 µM and the IC50 [2] is reported as 19.2 µM.
`N=c1c2c(-c3ccccc3)c(-c3ccccc3)n(Cc3ccc(S(N)(=O)=O)cc3)c2ncn1C1CCOCC1` [Compound 57] was tested, and the IC50 [1] was 0.059 µM and the IC50 [2] was 96.1 µM.
In the case of `COc1ccc(Cn2c(-c3ccccc3)c(-c3ccccc3)c3c(=N)n([C@H]4CC[C@H](O)CC4)cnc32)cc1` [Compound 58], the IC50 [1] is reported as 0.118 µM and the IC50 [2] is reported as 24.1 µM.
`COc1ccc(Cn2c(-c3ccccc3)c(-c3ccccc3)c3c(=N)n(C4CCOCC4)cnc32)cc1` [Compound 59] was tested, and the IC50 [1] was 0.118 µM and the IC50 [2] was 24.1 µM.
With `N=c1c2c(-c3ccccc3)c(-c3ccccc3)n(CC3CCCCC3)c2ncn1C1CCOCC1` [Compound 60] the IC50 [1] was 0.118 µM and the IC50 [2] was 24.1 µM.
Work on `N=c1c2c(-c3ccccc3)c(-c3ccccc3)n(Cc3ccccc3)c2ncn1CCC1CCC(O)CC1` (centres unmarked) [Compound 61] yielded an IC50 [1] of 0.118 µM and an IC50 [2] of 24.1 µM.
In the case of `N=c1c2c(-c3ccccc3)c(-c3ccccc3)n(CCc3ccccc3)c2ncn1C[C@H]1CCCC[C@@H]1O` [Compound 62], the IC50 [1] is reported as 0.148 µM and the IC50 [2] is reported as 24.1 µM.
With `N=c1c2c(-c3ccccc3)c(-c3ccccc3)n(Cc3ccccc3)c2ncn1C1CCCC[C@H]1O` (some centres unmarked) [Compound 63] the IC50 [1] was 0.148 µM and the IC50 [2] was 19.2 µM.
`N=c1c2c(-c3ccccc3)c(-c3ccccc3)n(CC3CC3)c2ncn1C1CCOCC1` [Compound 64] gave an IC50 [1] of 0.187 µM and an IC50 [2] of 38.3 µM.
In the case of `CO[C@H]1CC[C@H](n2cnc3c(c(-c4ccccc4)c(-c4ccccc4)n3CCc3ccccc3)c2=N)CC1` [Compound 65], the IC50 [1] is reported as 0.235 µM and the IC50 [2] is reported as 19.2 µM.
